The text below walks through data of paper PMC11040118 (Heliyon, 2024).

This test deals with T1, Thyroperoxidase (TPO) (Rattus norvegicus, UniProt P14650).
T1 sequence (P14650 32-914): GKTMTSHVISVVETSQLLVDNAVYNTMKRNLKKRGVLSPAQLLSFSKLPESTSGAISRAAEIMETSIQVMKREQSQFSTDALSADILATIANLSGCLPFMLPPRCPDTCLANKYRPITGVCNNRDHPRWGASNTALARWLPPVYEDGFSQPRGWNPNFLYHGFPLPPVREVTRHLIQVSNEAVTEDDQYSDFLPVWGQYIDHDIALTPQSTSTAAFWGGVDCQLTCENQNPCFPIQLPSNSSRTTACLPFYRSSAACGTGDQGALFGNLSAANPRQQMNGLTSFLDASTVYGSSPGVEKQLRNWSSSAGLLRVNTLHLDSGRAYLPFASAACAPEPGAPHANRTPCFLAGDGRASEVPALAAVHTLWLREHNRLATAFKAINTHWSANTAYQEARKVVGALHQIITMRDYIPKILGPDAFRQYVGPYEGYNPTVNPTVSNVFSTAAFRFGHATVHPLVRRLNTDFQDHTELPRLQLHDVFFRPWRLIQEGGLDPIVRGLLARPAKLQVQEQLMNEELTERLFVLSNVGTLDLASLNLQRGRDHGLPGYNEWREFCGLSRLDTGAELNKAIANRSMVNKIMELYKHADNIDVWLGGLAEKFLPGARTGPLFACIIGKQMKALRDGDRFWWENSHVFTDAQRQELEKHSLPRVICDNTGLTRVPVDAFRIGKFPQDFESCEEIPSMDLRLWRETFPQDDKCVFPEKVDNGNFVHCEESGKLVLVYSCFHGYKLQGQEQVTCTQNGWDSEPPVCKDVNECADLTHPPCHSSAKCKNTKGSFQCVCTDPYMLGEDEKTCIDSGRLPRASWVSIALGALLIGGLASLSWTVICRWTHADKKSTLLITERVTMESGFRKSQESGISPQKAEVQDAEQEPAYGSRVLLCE
The class given is biochemical.

Setting [1] is: AVG IC50 ± SD, L-Tyr to MIT, rat thyroid microsomes, mean of N = 3 ± SD.
The mark [2] stands for this setting: Actual pIC50, in vitro value repeated in Table 2 for comparison with the models.
Where [3] appears, read: Log10 Value of AVG IC50, L-Tyr to MIT, from average IC50, Table 1.

Like-named read-outs stand apart in the source and are kept apart here.

`Oc1ccc(OCc2ccccc2)cc1` [4-Benzyloxy phenol, 4-Benzyloxyphenol]: the IC50 (commonly the concentration that inhibits the measured activity by half) is, setting by setting: under setting [1], 8.76 ± 1.36 µM; under setting [2], 8.91 µM; under setting [3], 8.91 µM.

For the compound `COc1cc(/C=C/C(=O)CC(=O)/C=C/c2ccc(O)c(OC)c2)ccc1O` [Curcumin], the IC50 runs as follows: under setting [1], 1.81 ± 0.43 µM; under setting [2], 1.82 µM.

Regarding `O=C(O[C@@H]1Cc2c(O)cc(O)cc2O[C@@H]1c1cc(O)c(O)c(O)c1)c1cc(O)c(O)c(O)c1` [Epigallocatechin gallate], the “Log10 Value of AVG IC50, L-Tyr to MIT” value (from average IC50, Table 1) is listed as 6.48. Further, the “Actual pIC50” value (in vitro value repeated in Table 2 for comparison with the models) was found to be 6.48.

Take `O=C(O)c1cc(O)c(O)c(O)c1` [Gallic acid hydrate]: the IC50 is, setting by setting: under setting [1], 0.79 ± 0.34 µM; under setting [2], 0.813 µM; under setting [3], 0.813 µM.

On to `CC[C@H](c1ccc(O)cc1)[C@@H](CC)c1ccc(O)cc1` [Hexestrol], for which the IC50 by setting is: under setting [1], 7.77 ± 2.71 µM; under setting [2], 7.94 µM; under setting [3], 7.94 µM.

Take `O=c1c(O)c(-c2ccc(O)cc2)oc2cc(O)cc(O)c12` [Kaemferol, Kaempferol]: the IC50 is, setting by setting: under setting [1], 4.93 ± 1.97 µM; under setting [2], 5.01 µM; under setting [3], 5.01 µM.

As for `NC(=S)Nc1ccccc1` [Phenylthiourea], the IC50 runs as follows: under setting [1], 2.73 ± 0.69 µM; under setting [2], 2.75 µM.

Take `Oc1ccc(/C=C/c2cc(O)cc(O)c2)cc1` [Reservatrol, Resveratrol]: the IC50 is 0.71 ± 0.05 µM under setting [1] and 0.724 µM under setting [2].

Consider `COc1cc(CCC(=O)CC(=O)CCc2ccc(O)c(OC)c2)ccc1O` [Tetrahydro curcumin, Tetrahydrocurcumin], for which inhibition under setting [1] was half-maximal at 1.51 ± 0.17 µM (IC50); the midpoint of inhibition under setting [2], the IC50, lay at 1.55 µM; the IC50 under setting [3] was 1.55 µM.
